A melting point compilation (Tetko et al.; mined from patent text by program, amines drawn as free bases though some values may be those of a salt)

In the case of `Cn1ncc(/C=C/C(=O)Nc2ccc(CN3C(=O)COC3=O)cc2)c1-c1ccc(F)cc1`, the melting point is reported as 239 to 240 °C.
`CCCn1c(COCC)nc2c(N)nc3cc(OC4CCN(C(=O)NC(C)C)CC4)ccc3c21` showed a melting point of 163 to 164 °C.
Compound `COc1ccnc(N2CCN(C(=O)c3ccco3)CC2)n1` has a melting point of 85 to 86 °C.
`Cc1ccc(Cn2ncn(-c3nc(C)c(C(=O)NCc4csc(C(C)C)n4)s3)c2=O)cc1` showed a melting point of 151 to 153 °C.
With `NC(=S)N(c1ccsc1-c1nc(C2CC2)no1)C1CN2CCC1CC2` (stereo not given) the melting point was 155 to 157 °C.
With `COc1cccc2c1C(=O)c1sc(-c3ccccc3)nc1C2=O` the melting point was > 260 °C.
`Cc1nnc2c(C(C)Oc3ccc(Cl)cc3)ccnn12` (stereo not given) gave a melting point of 158 to 160 °C.
`C=CC(=O)Nc1c(C)cccc1C` showed a melting point of 144 to 145 °C.
`COC(=O)c1ccccc1-c1ccc(Cc2nc(-c3ccccc3)nc3ccccc23)cc1` gave a melting point of 120 to 121 °C.
For `CC(C)(C)OC(=O)N1CC(=O)Nc2cccc(F)c21`, the melting point was 155 to 156 °C.
`C#Cc1cnc2c(c1)C(=O)N(C)c1cccnc1N2CC` gave a melting point of 117 to 118 °C.
In the case of `CCCNC(=O)CCn1cnc2c(N)nc3ccccc3c21`, the melting point is reported as 212 to 214 °C.
In the case of `FC(F)(F)c1ccc(-c2cc(C(F)(F)F)n3cnc(I)c3n2)cc1`, the melting point is reported as 141 °C.
In the case of `[N-]=[N+]=NCc1ccc(Sc2ccc(Cl)cc2)c(Cl)c1`, the melting point is reported as 39 to 41 °C.
With `O=C1c2ccccc2C(=O)N1CCN1c2ccccc2N(Cc2ccccc2)C(=O)[C@H]2CCC[C@H]21` (relative stereo) the melting point was 142 to 143 °C.
With `COC(=O)CCCc1cc2nc(Cl)ccc2n1S(=O)(=O)c1ccc2nc(N)sc2c1` the melting point was 85 to 90 °C.
In the case of `COc1cc(C=C2NC(=O)NC2=O)cc(OC)c1O`, the melting point is reported as 296 to 297 °C.
In the case of `COc1ccc(COc2ccc(C=C(C=O)C(C=O)=Cc3ccc(OCc4ccc(OC)cc4)cc3)cc2)cc1`, the melting point is reported as 218 to 220 °C.
`COCC(=O)Nc1ccc2c(c1)CCC2` showed a melting point of 104 to 105 °C.
With `CC=Cc1cn(C2CC(O)C(CO)O2)c(=O)[nH]c1=O` (stereo not given) the melting point was 178 °C.
With `CCC1(CCCCN2CCN(c3ccccn3)CC2)C(=O)Nc2ccc(Br)cc21` (stereo not given) the melting point was 114 to 115 °C.
`CN=C(NC#N)NCCSCc1ncccc1O` gave a melting point of 146 to 148 °C.
For `CCCc1c(OCCCSc2ccc(C(=O)CCCO)cc2)ccc(C(C)=O)c1O`, the melting point was 73 to 75 °C.
With `OC(CSC(=S)Nc1ccccn1)c1ccccc1` (stereo not given) the melting point was 82 °C.
For `CN(c1cccnc1S(N)(=O)=O)S(=O)(=O)CF`, the melting point was 160 to 162 °C.
In the case of `c1ccc(CCC2CCN(Cc3n[nH]c4ccccc34)CC2)cc1`, the melting point is reported as 153 to 155 °C.
For `COc1ccccc1N1CCN(CCCNC(=O)c2cccc3c(=O)cc(-c4ccccc4)[nH]c23)CC1`, the melting point was 135 to 140 °C.
For `Cc1ccc(NC(=O)c2c(Cl)cccc2Cl)c2nccc(-n3ccnc3)c12`, the melting point was 236 °C.
For `Cc1cccc(C)c1N(CCC(C)N1C(=O)c2ccccc2C1=O)S(C)(=O)=O` (stereo not given), the melting point was 148 to 152 °C.
`O=C(c1cc2ccc3[nH]ccc3c2[nH]1)N1CCC(Cc2ccccc2)CC1` gave a melting point of 186 to 188 °C.
`CC(C)Oc1ccccc1C1(OC(=O)N2CCN(c3ccncc3)CC2)C(=O)Nc2ccc(Cl)cc21` (stereo not given) gave a melting point of 196 to 198 °C.
For `COc1cccc(-c2nc3ccc(OC)cc3s2)c1`, the melting point was 155 to 157 °C.
Compound `OC(CCN1CCN(c2ccccc2)CC1)COc1ccc(Br)cc1` (stereo not given) has a melting point of 100 to 103 °C.
In the case of `Cc1cc(Br)sc1-c1nc(-c2c(F)cccc2Cl)nn1C`, the melting point is reported as 117 to 118 °C.
With `CCCCN(CCCOc1ccc(S(=O)(=O)c2c(C(C)C)cn3ccccc23)cc1)C(C)c1ccc(OC)c(OC)c1` (stereo not given) the melting point was 108 to 110 °C.
`C[C@H](OC(=O)c1ccccc1)[C@@H](O)[C@@H](CO)OCc1ccccc1Cl` gave a melting point of 80 to 83 °C.
Compound `CNC(=O)CN1CCc2ccc(Nc3ncc(Cl)c(Nc4ccc(N5CCOCC5)cc4OC)n3)cc2CC1` has a melting point of 169 to 176 °C.
For `C[Si](C)(C)C#C[C@@]1(O)[C@@H](COC(=O)c2ccc(Cl)cc2)OC(O)[C@@H]1O` (stereo not given in full), the melting point was 130 to 132 °C.
For `CC(=O)c1ccnnc1`, the melting point was 66.5 to 67.5 °C.
For `Cc1c(NC(=O)c2ccc(OCc3cccc(F)c3)cc2)ccc2cc(CN3CCCC3)cnc12`, the melting point was 151 to 152 °C.
With `Cc1ccc(Sc2c(N)cc(C(=O)O)cc2S)cc1` the melting point was 178 to 182 °C.
`COC(=O)CC1c2cc(OC)ccc2N(c2nc3ccccc3nc2Cl)C1C` (stereo not given) gave a melting point of 155 to 157 °C.
Work on `CCc1cc(C2(c3ccc(F)c(-c4cnccc4F)c3)N=C(N)N(C)C2=O)cc(CC)n1` (stereo not given) yielded a melting point of 92 to 100 °C.
`C[C@@H](c1ccc(-c2cc(=O)n(C)cc2F)cc1)N1CC[C@](CC(C)(C)O)(c2ccccc2)OC1=O` showed a melting point of 183 to 184 °C.
`CC(C)(C)OC(=O)Nc1ccc2ccc(S(C)(=O)=O)cc2c1Br` showed a melting point of 166 to 167 °C.
With `Cc1nc2scc(C)n2c(=O)c1CCN1CCC(C(=O)c2ccc(F)cc2)CC1` the melting point was 200 °C.
`CC(SC1COC(c2ccc(C(=O)Nc3ccc(Cl)cc3)cc2)OC1)C(O)(Cn1cncn1)c1ccc(F)cc1F` (stereo not given) gave a melting point of 210 °C.
`Cc1c[nH]c(=O)n(C(=O)c2ccccc2)c1=O` showed a melting point of 178 to 180 °C.
In the case of `O=C1NC(=O)C(=Cc2ccc(SCCc3ccccc3)cc2)S1`, the melting point is reported as 182 to 183 °C.
Work on `Cc1onc2c1NC(=O)COC2(C)c1ccccc1` (stereo not given) yielded a melting point of 177 to 178 °C.
`COCCCCCCCCCCCC(=O)NCc1ccccc1` showed a melting point of 77.7 to 79.4 °C.
`Cc1nc(-c2ccc(F)cc2)n(-c2ccc(S(C)(=O)=O)cc2)n1` gave a melting point of 143 to 144 °C.
`COC(=O)[C@H](Cc1ccccc1)NC(=S)Cc1cc(C)ccc1C` gave a melting point of 63.5 to 64 °C.
Work on `CCOC(=O)c1c(SC)nc(-c2ccc(F)cc2)n(-c2ccc(SC)cc2)c1=O` yielded a melting point of 166 to 169 °C.
`Fc1ccc(F)c(COc2cccnc2NC(=S)Nc2ccc(Cl)cc2)c1F` showed a melting point of 174 to 176 °C.
With `CCCCN(C)c1nsc(N)c1C#N` the melting point was 87 to 89 °C.
`Nc1ncccc1CNC(=O)C1Cc2ccccc2N1S(=O)(=O)c1ccc(-c2cccc(C(F)(F)F)c2)cc1` (stereo not given) gave a melting point of 94 °C.
With `Cc1oc(-c2cccc(-c3nc(CC(=O)OCc4ccccc4)c(C)o3)c2)nc1CC(=O)OCc1ccccc1` the melting point was 98 to 100 °C.
Work on `NC(=O)CN1C(=O)C(=Cc2ccc(OCCc3ccccc3)c(OCc3ccccc3)c2)SC1=S` yielded a melting point of 212 to 214 °C.
`C1=Cc2ccccc2NC1` showed a melting point of 89 to 90 °C.
`CCOC(=O)c1[nH]c(C)c(C(C)C)c1C` gave a melting point of 105 to 108 °C.
Work on `O=C(C1CCCN1)N1CCN(c2nc(N3CCCC3)nc(N3CCCC3)n2)CC1` (stereo not given) yielded a melting point of 143 °C.
`O=C1c2cc(F)ccc2OCC1C(=O)C(F)(F)F` (stereo not given) showed a melting point of 107 to 112 °C.
`COc1cccc2c1nc(C(F)F)n2-c1nc(Nc2ccc(F)nc2)nc(N2CCOCC2)n1` showed a melting point of 261 to 263 °C.
`CCCCc1ccc(-c2ccc3c(c2)CC[C@H]2N(C)C(=O)CC[C@]32C)cc1` gave a melting point of 102 to 108 °C.
With `CCCCC[C@@H](CNC(=O)Nc1c(OC(C)C)c(C)nn1C(C)(C)C)c1cccc2c1OCO2` the melting point was 98.5 to 99 °C.
`Cc1cc(F)ccc1-c1nc(NC(C)(C)CO)nc2c1ccc(=O)n2-c1c(F)cccc1F` showed a melting point of 99 to 105 °C.
`CC(C)=CCCC(C)=CCOc1ccc(C(=O)NCCNc2cccnc2)cc1` gave a melting point of 88.5 to 89.2 °C.
With `CCOC(=O)CC(NC(C)=O)C(=O)c1ccco1` (stereo not given) the melting point was 82 to 84 °C.
For `N#Cc1ccc(-c2ccc(N3CCCNC3=O)cc2)cc1`, the melting point was > 200 °C.
